Measured values from PubChem BioAssay (NCI).
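Briefly, cells in 96-well plates were exposed to five compound concentrations for 48 h, and endpoints were estimated by linear interpolation. TGI is the concentration that stops growth completely.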

Columns and labels:
Assay in all cases: NCI-60 cell line screen, 48 h
SN12C renal = system: SN12C renal
IGROV1 ovarian = system: IGROV1 ovarian
LXFL 529 NSCLC = system: LXFL 529 NSCLC
COLO 205 colon = system: COLO 205 colon
NCI-H460 lung = system: NCI-H460 lung
TK-10 renal = system: TK-10 renal
KM12 colon = system: KM12 colon
M19-MEL melanoma = system: M19-MEL melanoma
UACC-257 melanoma = system: UACC-257 melanoma
A498 renal = system: A498 renal
HL-60(TB) leukemia = system: HL-60(TB) leukemia
SR leukemia = system: SR leukemia
CCRF-CEM leukemia = system: CCRF-CEM leukemia
CAKI-1 renal = system: CAKI-1 renal
786-0 renal = system: 786-0 renal
HOP-92 NSCLC = system: HOP-92 NSCLC
OVCAR-5 ovarian = system: OVCAR-5 ovarian
SK-OV-3 ovarian = system: SK-OV-3 ovarian
SNB-19 CNS = system: SNB-19 CNS
RXF 393 renal = system: RXF 393 renal
DMS 273 small cell lung = system: DMS 273 small cell lung
OVCAR-8 ovarian = system: OVCAR-8 ovarian
SK-MEL-2 melanoma = system: SK-MEL-2 melanoma
MOLT-4 leukemia = system: MOLT-4 leukemia
A549 NSCLC = system: A549 NSCLC
U251 CNS = system: U251 CNS
SW-620 colon = system: SW-620 colon
K-562 leukemia = system: K-562 leukemia
HCT-116 colon = system: HCT-116 colon
HT29 colon = system: HT29 colon
SNB-78 CNS = system: SNB-78 CNS
RPMI-8226 leukemia = system: RPMI-8226 leukemia
SNB-75 CNS = system: SNB-75 CNS
SK-MEL-5 melanoma = system: SK-MEL-5 melanoma
HCC-2998 colon = system: HCC-2998 colon
NCI-H23 lung = system: NCI-H23 lung
EKVX NSCLC = system: EKVX NSCLC
SK-MEL-28 melanoma = system: SK-MEL-28 melanoma
SF-539 CNS = system: SF-539 CNS
OVCAR-3 ovarian = system: OVCAR-3 ovarian
ACHN renal = system: ACHN renal
SF-268 CNS = system: SF-268 CNS
SF-295 CNS = system: SF-295 CNS
NCI-H226 lung = system: NCI-H226 lung
MALME-3M melanoma = system: MALME-3M melanoma
DMS 114 small cell lung = system: DMS 114 small cell lung
UACC-62 melanoma = system: UACC-62 melanoma
DLD-1 colon = system: DLD-1 colon
UO-31 renal = system: UO-31 renal
KM20L2 colon = system: KM20L2 colon
HCT-15 colon = system: HCT-15 colon
NCI-H522 lung = system: NCI-H522 lung
M14 melanoma = system: M14 melanoma
LOX IMVI melanoma = system: LOX IMVI melanoma
OVCAR-4 ovarian = system: OVCAR-4 ovarian

## C=C1C(=O)OC2C1CC[C@H](C)C1(O)C(O)CC(=O)[C@@]21C (some centres not stated)
SN12C renal
  TGI: 45.1 µM
IGROV1 ovarian
  TGI: 73.4 µM
LXFL 529 NSCLC
  TGI: > 10 µM
COLO 205 colon
  TGI: 30.8 µM
NCI-H460 lung
  TGI: > 100 µM
TK-10 renal
  TGI: > 10 µM
KM12 colon
  TGI: 34.1 µM
M19-MEL melanoma
  TGI: 26.8 µM
UACC-257 melanoma
  TGI: 32.6 µM
A498 renal
  TGI: 36 µM
HL-60(TB) leukemia
  TGI: 55.2 µM
SR leukemia
  TGI: 47.9 µM
CCRF-CEM leukemia
  TGI: > 10 µM
CAKI-1 renal
  TGI: 72.7 µM
786-0 renal
  TGI: 66.7 µM
HOP-92 NSCLC
  TGI: 47.7 µM
OVCAR-5 ovarian
  TGI: 65.4 µM
SK-OV-3 ovarian
  TGI: 56 µM
SNB-19 CNS
  TGI: > 100 µM
RXF 393 renal
  TGI: > 10 µM
DMS 273 small cell lung
  TGI: 52.3 µM
OVCAR-8 ovarian
  TGI: 42.8 µM
SK-MEL-2 melanoma
  TGI: 72.1 µM
MOLT-4 leukemia
  TGI: 42.7 µM
A549 NSCLC
  TGI: > 100 µM
U251 CNS
  TGI: > 100 µM
SW-620 colon
  TGI: 44 µM
K-562 leukemia
  TGI: 55.6 µM
HCT-116 colon
  TGI: 33.9 µM
HT29 colon
  TGI: 48.9 µM
SNB-78 CNS
  TGI: 84.2 µM
RPMI-8226 leukemia
  TGI: 94.8 µM
SNB-75 CNS
  TGI: 76.2 µM
SK-MEL-5 melanoma
  TGI: 31.4 µM
HCC-2998 colon
  TGI: 46.6 µM
NCI-H23 lung
  TGI: 40.3 µM
EKVX NSCLC
  TGI: 45.1 µM
SK-MEL-28 melanoma
  TGI: 27 µM
SF-539 CNS
  TGI: 40.3 µM
OVCAR-3 ovarian
  TGI: 47.8 µM
ACHN renal
  TGI: 43.4 µM
SF-268 CNS
  TGI: 54.5 µM
SF-295 CNS
  TGI: 61.3 µM
NCI-H226 lung
  TGI: 53.3 µM
MALME-3M melanoma
  TGI: 39.2 µM
DMS 114 small cell lung
  TGI: 33.9 µM
UACC-62 melanoma
  TGI: 25.3 µM
DLD-1 colon
  TGI: 80.7 µM
UO-31 renal
  TGI: 71.2 µM

## Cn1c(=O)c2ccccc2c2nc3ccccc3nc21
SN12C renal
  TGI: > 100 µM
IGROV1 ovarian
  TGI: > 100 µM
LXFL 529 NSCLC
  TGI: > 100 µM
COLO 205 colon
  TGI: > 100 µM
TK-10 renal
  TGI: > 100 µM
KM12 colon
  TGI: > 100 µM
M19-MEL melanoma
  TGI: > 100 µM
UACC-257 melanoma
  TGI: > 100 µM
SR leukemia
  TGI: > 100 µM
786-0 renal
  TGI: > 100 µM
OVCAR-5 ovarian
  TGI: > 100 µM
SK-OV-3 ovarian
  TGI: > 100 µM
SNB-19 CNS
  TGI: > 100 µM
RXF 393 renal
  TGI: > 100 µM
DMS 273 small cell lung
  TGI: > 100 µM
OVCAR-8 ovarian
  TGI: > 100 µM
SK-MEL-2 melanoma
  TGI: > 100 µM
MOLT-4 leukemia
  TGI: > 100 µM
A549 NSCLC
  TGI: > 100 µM
U251 CNS
  TGI: > 100 µM
SW-620 colon
  TGI: > 100 µM
K-562 leukemia
  TGI: > 100 µM
HCT-116 colon
  TGI: > 100 µM
HT29 colon
  TGI: > 100 µM
SNB-78 CNS
  TGI: > 100 µM
RPMI-8226 leukemia
  TGI: > 100 µM
SNB-75 CNS
  TGI: 58.9 µM
SK-MEL-5 melanoma
  TGI: > 100 µM
HCC-2998 colon
  TGI: > 100 µM
NCI-H23 lung
  TGI: > 100 µM
EKVX NSCLC
  TGI: > 100 µM
SK-MEL-28 melanoma
  TGI: > 100 µM
SF-539 CNS
  TGI: > 100 µM
KM20L2 colon
  TGI: > 100 µM
ACHN renal
  TGI: > 100 µM
SF-268 CNS
  TGI: > 100 µM
SF-295 CNS
  TGI: > 100 µM
NCI-H226 lung
  TGI: > 100 µM
MALME-3M melanoma
  TGI: > 100 µM
DMS 114 small cell lung
  TGI: > 100 µM
UACC-62 melanoma
  TGI: > 100 µM
UO-31 renal
  TGI: > 100 µM
HCT-15 colon
  TGI: > 100 µM

## O=c1[nH]c(=O)n(C2OC(CO)C(N(O)Cc3ccc(F)cc3)C2O)cc1Br (configuration not stated)
SN12C renal
  TGI: > 100 µM
IGROV1 ovarian
  TGI: > 100 µM
LXFL 529 NSCLC
  TGI: > 100 µM
COLO 205 colon
  TGI: > 100 µM
NCI-H460 lung
  TGI: > 100 µM
TK-10 renal
  TGI: > 100 µM
KM12 colon
  TGI: > 100 µM
NCI-H522 lung
  TGI: > 100 µM
M19-MEL melanoma
  TGI: > 100 µM
UACC-257 melanoma
  TGI: > 100 µM
A498 renal
  TGI: > 100 µM
HL-60(TB) leukemia
  TGI: > 100 µM
SR leukemia
  TGI: > 100 µM
CCRF-CEM leukemia
  TGI: > 100 µM
M14 melanoma
  TGI: > 100 µM
786-0 renal
  TGI: > 100 µM
HOP-92 NSCLC
  TGI: > 100 µM
OVCAR-5 ovarian
  TGI: > 100 µM
SK-OV-3 ovarian
  TGI: > 100 µM
SNB-19 CNS
  TGI: > 100 µM
RXF 393 renal
  TGI: > 100 µM
DMS 273 small cell lung
  TGI: > 100 µM
OVCAR-8 ovarian
  TGI: > 100 µM
MOLT-4 leukemia
  TGI: > 100 µM
A549 NSCLC
  TGI: > 100 µM
LOX IMVI melanoma
  TGI: > 100 µM
U251 CNS
  TGI: > 100 µM
SW-620 colon
  TGI: > 100 µM
K-562 leukemia
  TGI: > 100 µM
HCT-116 colon
  TGI: > 100 µM
HT29 colon
  TGI: > 100 µM
SNB-78 CNS
  TGI: > 100 µM
RPMI-8226 leukemia
  TGI: > 100 µM
SNB-75 CNS
  TGI: > 100 µM
SK-MEL-5 melanoma
  TGI: > 100 µM
HCC-2998 colon
  TGI: > 100 µM
NCI-H23 lung
  TGI: > 100 µM
EKVX NSCLC
  TGI: > 100 µM
SK-MEL-28 melanoma
  TGI: > 100 µM
SF-539 CNS
  TGI: > 100 µM
OVCAR-3 ovarian
  TGI: > 100 µM
KM20L2 colon
  TGI: > 100 µM
ACHN renal
  TGI: > 100 µM
SF-268 CNS
  TGI: > 100 µM
SF-295 CNS
  TGI: > 100 µM
DMS 114 small cell lung
  TGI: > 100 µM
UACC-62 melanoma
  TGI: > 100 µM
DLD-1 colon
  TGI: > 100 µM
UO-31 renal
  TGI: > 100 µM
OVCAR-4 ovarian
  TGI: > 100 µM
